According to patent US9090776B2, “Squarylium dyes” (Exciton, Inc., priority 2012, dated 2015):

Experiment: Solubility of squarylium dye in dichloromethane
Assay type: physicochemical
From the text: Subsequent conversion to the squarylium dye can yield desirable photophysical, solubility, thermal stability, and/or light stability properties. For example, as shown in the FIGURE, the ortho-, ortho- isomer of compound IV has a solubility of about 0.2 gm/L in dichloromethane, CH2Cl2. In comparison, the corresponding meta-, meta- and para-, para- isomers of compound have solubilities of about 0.6 gm/L and about 0.5 gm/L in CH2Cl2, respectively.

Question: Which “solubility in dichloromethane, CH2Cl2” value does the source give for `CC1N(Cc2cccc(NC(=O)c3ccccc3)c2)c2cc(NC(=O)c3ccccc3)c(C3=C([O-])/C(=c4/cc5c(cc4NC(=O)c4ccccc4)=[N+](Cc4cccc(NC(=O)c6ccccc6)c4)C(C)C5(C)C)C3=O)cc2C1(C)C` (stereo not drawn) [meta-, meta- isomer of compound IV] here?
Answer: about 0.6 gm/L
